Assays:
Experiment in all cases: relative viability (nuclei count vs DMSO), 5 days (fraction); higher = more cells survive
[1] = compound: CCn1c(-c2nonc2N)nc2cnc(Oc3cccc(NC(=O)c4ccc(OCCN5CCOCC5)cc4)c3)cc21 + COc1cccc2cc(-c3nc([C@H]4CC[C@H](C(=O)O)CC4)n4ncnc(N)c34)[nH]c12 [OSI-027] (partner 0.5 µM)
In short: (§1)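 One day after seeding in 1536-well plates, lung cancer cell lines were dosed by pin tool. Dosing was either single-drug or a fixed anchor-drug dose plus five library-drug doses (not always all listed) in √10 steps. After 5 days, nuclei were stained in one fix-and-stain step and counted on 4× images, and relative viability is the nuclei count of treated wells over that of vehicle wells, given as the median of duplicate plates.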

[2] = compound: CCn1c(-c2nonc2N)nc2cnc(Oc3cccc(NC(=O)c4ccc(OCCN5CCOCC5)cc4)c3)cc21 + O=C(c1cc(Cc2n[nH]c(=O)c3ccccc23)ccc1F)N1CCN(C(=O)C2CC2)CC1 [Olaparib] (partner 8 µM)
In short: as §1

Mirin + Olaparib = compound: N=C1NC(=O)/C(=C/c2ccc(O)cc2)S1 [Mirin] + O=C(c1cc(Cc2n[nH]c(=O)c3ccccc23)ccc1F)N1CCN(C(=O)C2CC2)CC1 [Olaparib] (partner 8 µM)
In short: as §1

Mirin + Pictilisib = compound: N=C1NC(=O)/C(=C/c2ccc(O)cc2)S1 [Mirin] + CS(=O)(=O)N1CCN(Cc2cc3nc(-c4cccc5[nH]ncc45)nc(N4CCOCC4)c3s2)CC1 [Pictilisib] (partner 1 µM)
In short: as §1

NCI-H2342
relative viability ([1]; first compound 0.04 µM): 0.716 | relative viability ([1]; first compound 0.1265 µM): 0.696 | relative viability ([1]; first compound 0.4 µM): 0.535 | relative viability ([1]; first compound 1.265 µM): 0.487 | relative viability ([1]; first compound 4 µM): 0.577 | relative viability ([2]; first compound 0.04 µM): 0.439 | relative viability ([2]; first compound 0.1265 µM): 0.508 | relative viability ([2]; first compound 0.4 µM): 0.469 | relative viability ([2]; first compound 1.265 µM): 0.368 | relative viability ([2]; first compound 4 µM): 0.361 | relative viability (Mirin + Olaparib; first compound 0.25 µM): 0.441 | relative viability (Mirin + Olaparib; first compound 0.7906 µM): 0.442 | relative viability (Mirin + Olaparib; first compound 2.5 µM): 0.427 | relative viability (Mirin + Olaparib; first compound 25 µM): 0.368

NCI-H1623
relative viability ([1]; first compound 0.04 µM): 0.513 | relative viability ([1]; first compound 0.1265 µM): 0.488 | relative viability ([1]; first compound 0.4 µM): 0.351 | relative viability ([1]; first compound 1.265 µM): 0.43 | relative viability ([1]; first compound 4 µM): 0.542

SW 900
relative viability ([1]; first compound 0.04 µM): 0.553 | relative viability ([1]; first compound 0.1265 µM): 0.557 | relative viability ([1]; first compound 0.4 µM): 0.421 | relative viability ([1]; first compound 1.265 µM): 0.559 | relative viability ([1]; first compound 4 µM): 0.578 | relative viability ([2]; first compound 0.04 µM): 0.899 | relative viability ([2]; first compound 0.1265 µM): 0.924 | relative viability ([2]; first compound 0.4 µM): 1.13 | relative viability ([2]; first compound 1.265 µM): 0.826 | relative viability ([2]; first compound 4 µM): 0.694 | relative viability (Mirin + Olaparib; first compound 0.25 µM): 0.842 | relative viability (Mirin + Olaparib; first compound 0.7906 µM): 0.959 | relative viability (Mirin + Olaparib; first compound 2.5 µM): 0.848 | relative viability (Mirin + Olaparib; first compound 7.906 µM): 0.913 | relative viability (Mirin + Olaparib; first compound 25 µM): 0.767

NCI-H1648
relative viability ([1]; first compound 0.04 µM): 0.258 | relative viability ([1]; first compound 0.1265 µM): 0.393 | relative viability ([1]; first compound 0.4 µM): 0.276 | relative viability ([1]; first compound 1.265 µM): 0.314 | relative viability ([1]; first compound 4 µM): 0.327 | relative viability ([2]; first compound 0.04 µM): 0.604 | relative viability ([2]; first compound 0.1265 µM): 0.577 | relative viability ([2]; first compound 0.4 µM): 1.35 | relative viability ([2]; first compound 1.265 µM): 1.26 | relative viability ([2]; first compound 4 µM): 1.5 | relative viability (Mirin + Olaparib; first compound 0.25 µM): 0.572 | relative viability (Mirin + Olaparib; first compound 2.5 µM): 0.955 | relative viability (Mirin + Olaparib; first compound 7.906 µM): 0.639 | relative viability (Mirin + Olaparib; first compound 25 µM): 0.764

IA-LM
relative viability ([2]; first compound 0.04 µM): 0.967 | relative viability ([2]; first compound 0.1265 µM): 0.834 | relative viability ([2]; first compound 0.4 µM): 0.791 | relative viability ([2]; first compound 1.265 µM): 0.796 | relative viability ([2]; first compound 4 µM): 0.765 | relative viability (Mirin + Pictilisib; first compound 0.25 µM): 0.399 | relative viability (Mirin + Pictilisib; first compound 0.7906 µM): 0.438 | relative viability (Mirin + Pictilisib; first compound 2.5 µM): 0.326 | relative viability (Mirin + Pictilisib; first compound 7.906 µM): 0.349 | relative viability (Mirin + Pictilisib; first compound 25 µM): 0.494 | relative viability (Mirin + Olaparib; first compound 0.25 µM): 0.786 | relative viability (Mirin + Olaparib; first compound 0.7906 µM): 0.947 | relative viability (Mirin + Olaparib; first compound 2.5 µM): 0.765 | relative viability (Mirin + Olaparib; first compound 25 µM): 0.902

A549
relative viability ([2]; first compound 0.04 µM): 0.499 | relative viability ([2]; first compound 0.1265 µM): 0.343 | relative viability ([2]; first compound 0.4 µM): 0.122 | relative viability ([2]; first compound 1.265 µM): 0.0557 | relative viability ([2]; first compound 4 µM): 0.102 | relative viability (Mirin + Pictilisib; first compound 0.25 µM): 0.541 | relative viability (Mirin + Pictilisib; first compound 0.7906 µM): 0.512 | relative viability (Mirin + Pictilisib; first compound 2.5 µM): 0.55 | relative viability (Mirin + Pictilisib; first compound 7.906 µM): 0.403 | relative viability (Mirin + Pictilisib; first compound 25 µM): 0.321 | relative viability (Mirin + Olaparib; first compound 0.25 µM): 0.342 | relative viability (Mirin + Olaparib; first compound 0.7906 µM): 0.229 | relative viability (Mirin + Olaparib; first compound 2.5 µM): 0.333 | relative viability (Mirin + Olaparib; first compound 7.906 µM): 0.243 | relative viability (Mirin + Olaparib; first compound 25 µM): 0.367

From the supplement of paper PMC10307832
